“And” between values parts separate entries of the source, which are not always exact repeats. Equal values may be shown once.
Experiments:
Test in all cases: normalised viability (% of control), CellTiter-Blue; higher = more viable cells (about 100 = DMSO control)
Conditions in all cases: incubation time: 72 h
[1] = tested on: CAL-148
Protocol: (§1)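 DSRT, CellTiter-Blue viability, 72 h incubation. Signal is normalised to DMSO and benzethonium chloride controls. Value is the normalised response at dose 8.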

[2] = tested on: DU-4475
Protocol: as §1

[3] = tested on: CAL-51
Protocol: as §1

[4] = tested on: HDQ-P1
Protocol: as §1

[5] = tested on: CAL-85-1
Protocol: as §1

[6] = tested on: MDA-MB-453
Protocol: as §1

[7] = tested on: CAL-148; remark: listed apart in the source
Protocol: (§2)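 DSRT, CellTiter-Blue viability, 72 h incubation. Signal is normalised to DMSO and benzethonium chloride controls. Value is the normalised response at dose 6.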

[8] = tested on: DU-4475; remark: listed apart in the source
Protocol: as §2

[9] = tested on: CAL-51; remark: listed apart in the source
Protocol: as §2

[10] = tested on: HDQ-P1; remark: listed apart in the source
Protocol: as §2

[11] = tested on: CAL-85-1; remark: listed apart in the source
Protocol: as §2

[12] = tested on: MDA-MB-453; remark: listed apart in the source
Protocol: as §2

[13] = tested on: CAL-148; remark: listed apart in the source
Protocol: (§3)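 DSRT, CellTiter-Blue viability, 72 h incubation. Signal is normalised to DMSO and benzethonium chloride controls. Value is the normalised response at dose 7.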

[14] = tested on: DU-4475; remark: listed apart in the source
Protocol: as §3

[15] = tested on: CAL-51; remark: listed apart in the source
Protocol: as §3

[16] = tested on: HDQ-P1; remark: listed apart in the source
Protocol: as §3

[17] = tested on: CAL-85-1; remark: listed apart in the source
Protocol: as §3

[18] = tested on: MDA-MB-453; remark: listed apart in the source
Protocol: as §3

NC(=O)c1ccc(I)c([N+](=O)[O-])c1 [Iniparib] (3000 nM)
normalised viability [1]: 97% | normalised viability [2]: 88.1% | normalised viability [3]: 93.8% | normalised viability [4]: 93.9% | normalised viability [5]: 84.5% | normalised viability [6]: 85.1%

CCc1c2c(nc3ccc(OC(=O)N4CCC(N5CCCCC5)CC4)cc13)-c1cc3c(c(=O)n1C2)COC(=O)[C@]3(O)CC [Irinotecan] (300 nM)
normalised viability [7]: 82.5% and 96.9% | normalised viability [8]: 74.1% and 85.6% | normalised viability [9]: 101% and 105% | normalised viability [10]: 64.5% and 88.1% | normalised viability [11]: 81.2% and 99.8% | normalised viability [12]: 97.6% and 103%

CCc1c2c(nc3ccc(OC(=O)N4CCC(N5CCCCC5)CC4)cc13)-c1cc3c(c(=O)n1C2)COC(=O)[C@]3(O)CC [Irinotecan] (3000 nM)
normalised viability [1]: 28% and 42% | normalised viability [2]: 44.3% and 57.5% | normalised viability [3]: 49.9% and 64.2% | normalised viability [5]: 63.7% and 73.4% | normalised viability [6]: 73.3% and 90.7%

Oc1ccc2c(c1)CC[C@H](c1ccccc1)[C@@H]2c1ccc(OCCN2CCCC2)cc1 [Lasofoxifene] (30 nM)
normalised viability [7]: 116% | normalised viability [8]: 93% | normalised viability [9]: 106% | normalised viability [10]: 60.8% | normalised viability [11]: 100% | normalised viability [12]: 116%

Oc1ccc2c(c1)CC[C@H](c1ccccc1)[C@@H]2c1ccc(OCCN2CCCC2)cc1 [Lasofoxifene] (300 nM)
normalised viability [1]: 98.2% | normalised viability [2]: 96.4% | normalised viability [3]: 109% | normalised viability [4]: 102% | normalised viability [5]: 96.8% | normalised viability [6]: 104%

Cc1ccc(NC(=O)c2ccc(CN3CCN(C)CC3)cc2)cc1Nc1nc(-c2cccnc2)cs1 [Masitinib] (300 nM)
normalised viability [7]: 84.7% | normalised viability [8]: 98.7% | normalised viability [9]: 98.2% | normalised viability [10]: 68.5% | normalised viability [11]: 90.4% | normalised viability [12]: 88.5%

Cc1ccc(NC(=O)c2ccc(CN3CCN(C)CC3)cc2)cc1Nc1nc(-c2cccnc2)cs1 [Masitinib] (3000 nM)
normalised viability [1]: 74.8% | normalised viability [2]: 125% | normalised viability [3]: 115% | normalised viability [4]: 103% | normalised viability [5]: 94% | normalised viability [6]: 65.5%

O=C(Nc1cccnc1)N1CCC(Cc2cccc(Oc3ccc(C(F)(F)F)cn3)c2)CC1 [PF-3845] (300 nM)
normalised viability [7]: 103% | normalised viability [8]: 95.4% | normalised viability [9]: 97.9% | normalised viability [10]: 127% | normalised viability [11]: 93% | normalised viability [12]: 98.4%

Cc1[nH]c2ccccc2c1CCNCc1ccc(/C=C/C(=O)NO)cc1 [Panobinostat] (30 nM)
normalised viability [7]: 21.1% | normalised viability [8]: 27.3% | normalised viability [9]: 68.8% | normalised viability [10]: 62.8% | normalised viability [11]: 42.8% | normalised viability [12]: 3.77%

COCC1(CO)C(=O)C2CCN1CC2 (stereo not drawn) [Prima-1 Met] (300 nM)
normalised viability [7]: 94.5% | normalised viability [8]: 116% | normalised viability [9]: 91.2% | normalised viability [10]: 53.8% | normalised viability [11]: 83.3% | normalised viability [12]: 87.1%

CNC(=O)c1cc(Oc2ccc(NC(=O)Nc3ccc(Cl)c(C(F)(F)F)c3)c(F)c2)ccn1 [Regorafenib] (300 nM)
normalised viability [7]: 93.6% | normalised viability [8]: 103% | normalised viability [9]: 100% | normalised viability [10]: 89.8% | normalised viability [11]: 85.3% | normalised viability [12]: 95.6%

CO[C@H]1C[C@@H]2CC[C@@H](C)[C@@](O)(O2)C(=O)C(=O)N2CCCC[C@H]2C(=O)O[C@H]([C@H](C)C[C@@H]2CC[C@@H](OP(C)(C)=O)[C@H](OC)C2)CC(=O)[C@H](C)/C=C(\C)[C@@H](O)[C@@H](OC)C(=O)[C@H](C)C[C@H](C)/C=C/C=C/C=C/1C [Ridaforolimus] (30 nM)
normalised viability [7]: 40.8% | normalised viability [8]: 54% | normalised viability [9]: 37.9% | normalised viability [10]: 72.4% | normalised viability [11]: 53.8% | normalised viability [12]: 27.9%

c1ccc2c(CCNc3ccc(Nc4ccncc4)cc3)c[nH]c2c1 [Serdemetan] (300 nM)
normalised viability [7]: 87.6% | normalised viability [8]: 87.6% | normalised viability [9]: 108% | normalised viability [10]: 57.9% | normalised viability [11]: 87.7% | normalised viability [12]: 109%

S=P(N1CC1)(N1CC1)N1CC1 [Thio-TEPA] (3000 nM)
normalised viability [7]: 91.2% | normalised viability [8]: 92.2% | normalised viability [9]: 94.8% | normalised viability [10]: 90.4% | normalised viability [11]: 96.8% | normalised viability [12]: 95.5%

S=P(N1CC1)(N1CC1)N1CC1 [Thio-TEPA] (10000 nM)
normalised viability [13]: 113% | normalised viability [14]: 96.6% | normalised viability [15]: 89.6% | normalised viability [16]: 113% | normalised viability [17]: 91.3% | normalised viability [18]: 121%

CN(C)CCOc1ccc(/C(=C(/CCCl)c2ccccc2)c2ccccc2)cc1 [Toremifene] (300 nM)
normalised viability [7]: 102% | normalised viability [8]: 99.7% | normalised viability [9]: 104% | normalised viability [10]: 79.5% | normalised viability [11]: 101% | normalised viability [12]: 101%

CC(C)C[C@@H](C(=O)N[C@H](C(=O)OC1CCCC1)c1ccccc1)[C@H](O)C(=O)NO [Tosedostat] (300 nM)
normalised viability [7]: 78.1% | normalised viability [8]: 51.1% | normalised viability [9]: 86.5% | normalised viability [10]: 81.5% | normalised viability [11]: 92.8% | normalised viability [12]: 51.8%

COc1cc2/c(=N/c3ccc(Br)cc3F)nc[nH]c2cc1OCC1CCN(C)CC1 [Vandetanib] (300 nM)
normalised viability [7]: 90.7% | normalised viability [8]: 101% | normalised viability [9]: 89.6% | normalised viability [10]: 31.4% | normalised viability [11]: 83.7% | normalised viability [12]: 97.5%

COCC[n+]1c2c(n(Cc3cnccn3)c1C)C(=O)c1ccccc1C2=O [YM155] (300 nM)
normalised viability [7]: 1.6% | normalised viability [8]: 10.8% | normalised viability [9]: 2.3% | normalised viability [10]: -0.08% | normalised viability [11]: 1.89% | normalised viability [12]: 10.9%
